Reference: ChEMBL document CHEMBL1811878, “Heteroatom-substituted analogues of orphan nuclear receptor small heterodimer partner ligand and apoptosis inducer (E)-4-[3-(1-Adamantyl)-4-hydroxyphenyl]-3-chlorocinnamic acid” (J Med Chem, 2011)
Activity calls are given as the source filed them. No cut-off for these calls is given here.

Legend:
[1] = test system: KG-1; assay: Growth inhibition in human KG1 cells expressing p53 gene at 1 uM after 48 hrs by MTT assay; type: functional; conditions: KG-1, 48 h, read-out: GI
[2] = test system: HT-29; assay: Induction of apoptosis in human HT-29 cells assessed as decrease in ATP level after 72 hrs by luminescence assay; type: functional, cell-based
[3] = test system: A549; assay: Induction of apoptosis in human A549 cells assessed as decrease in ATP level after 72 hrs by luminescence assay; type: functional, cell-based
[4] = test system: KG-1; assay: Induction of apoptosis in human KG1 cells expressing p53 gene assessed as DNA fragmentation at 1 uM after 48 hrs by acridine orange staining method; type: functional
[5] = test system: PC-3; assay: Induction of apoptosis in human PC3 cells assessed as decrease in ATP level after 72 hrs by luminescence assay; type: functional, cell-based
[6] = test system: KG-1; assay: Growth inhibition in human KG1 cells expressing p53 gene at 5 uM after 48 hrs by MTT assay; type: functional; conditions: KG-1, 48 h, read-out: GI
[7] = test system: KG-1; assay: Induction of apoptosis in human KG1 cells assessed as DNA fragmentation at 5 uM after 48 hrs by acridine orange staining method; type: functional
[8] = test system: A549; assay: Induction of apoptosis in human A549 cells assessed as decrease in ATP level at 10 uM after 72 hrs by luminescence assay; type: functional, cell-based
[9] = test system: PC-3; assay: Induction of apoptosis in human PC3 cells assessed as decrease in ATP level at 10 uM after 72 hrs by luminescence assay; type: functional, cell-based
[10] = Induction of apoptosis in retinoid-resistant p53 null human HL60R cells assessed as DNA fragmentation at 1 uM after 24 hrs by acridine orange staining method; type: functional
[11] = Induction of apoptosis in retinoid-resistant p53 null human HL60R cells assessed as DNA fragmentation at 0.1 uM after 24 hrs by acridine orange staining method; type: functional
[12] = test system: A549; assay: Induction of apoptosis in human A549 cells assessed as decrease in ATP level at 5 uM after 72 hrs by luminescence assay; type: functional; set-up: scale not given: the % may be the effect or the level left
[13] = test system: PC-3; assay: Induction of apoptosis in human PC3 cells assessed as decrease in ATP level at 5 uM after 72 hrs by luminescence assay; type: functional; set-up: scale not given: the % may be the effect or the level left
[14] = test system: HT-29; assay: Induction of apoptosis in human HT-29 cells assessed as decrease in ATP level at 5 uM after 72 hrs by luminescence assay; type: functional; set-up: scale not given: the % may be the effect or the level left
[15] = Induction of apoptosis in mouse MMTV-Wnt-1 cells assessed as cell viability after 72 hrs by DAPI staining based cell counting; type: functional
[16] = test system: HT-29; assay: Induction of apoptosis in human HT-29 cells assessed as decrease in ATP level at 10 uM after 72 hrs by luminescence assay; type: functional

Compound	inhibition of growth at 1 µM [1]	Activity [2]	Activity [3]	Activity [4]	Activity [5]	inhibition of growth at 5 µM [6]	Activity [7]	Activity [8]	Activity [9]	Activity [10]	Activity [11]	Activity [12]	Activity [13]	Activity [14]	IC50 [15]	Activity [16]
O=C(O)/C=C/C1CCN(c2ccc(O)c(C34CC5CC(CC(C5)C3)C4)c2)CC1	1%	Dose-dependent effect	Dose-dependent effect	1%	Dose-dependent effect	2%	1%	–	–	–	–	–	–	–	–	–
O=C(O)CCN1CCN(c2ccc(O)c(C34CC5CC(CC(C5)C3)C4)c2)CC1	-3%	Dose-dependent effect	Dose-dependent effect	1%	Dose-dependent effect	5%	1%	inactive	Active	–	–	–	–	–	–	–
CCOC(=O)/C=C/c1ccc(-c2ccc(O)c(C34CC5CC(CC(C5)C3)C4)c2)nc1	0%	Dose-dependent effect	Dose-dependent effect	0%	Dose-dependent effect	45%	0%	Active	Active	–	–	–	–	–	–	–
O=C(O)c1ccc2c(Cl)c(-c3ccc(O)c(C45CC6CC(CC(C6)C4)C5)c3)ccc2c1	–	–	–	–	–	–	–	–	–	94%	62%	–	–	–	–	–
O=C(O)CS(=O)(=O)c1ccc(-c2ccc(O)c(C34CC5CC(CC(C5)C3)C4)c2)c(Cl)c1	7%	Dose-dependent effect	Dose-dependent effect	2%	Dose-dependent effect	13%	6%	–	–	–	–	–	–	–	–	–
O=C(O)CSc1ccc(-c2ccc(O)c(C34CC5CC(CC(C5)C3)C4)c2)c(Cl)c1	7%	Dose-dependent effect	Dose-dependent effect	2%	Dose-dependent effect	11%	5%	–	–	–	–	–	–	–	–	–
O=C(O)COc1ccc(-c2ccc(O)c(C34CC5CC(CC(C5)C3)C4)c2)c(Cl)c1	34%	Dose-dependent effect	Dose-dependent effect	5%	Dose-dependent effect	75%	25%	inactive	–	–	–	–	–	–	–	–
O=C(O)CC(=O)N1CCN(c2ccc(O)c(C34CC5CC(CC(C5)C3)C4)c2)C(=O)C1	-2%	Dose-dependent effect	Dose-dependent effect	1%	Dose-dependent effect	-5%	2%	–	–	–	–	–	–	–	–	–
O=C(O)CCc1ccc(-c2ccc(O)c(C34CC5CC(CC(C5)C3)C4)c2)c(Cl)c1	0%	Dose-dependent effect	Dose-dependent effect	0%	Dose-dependent effect	0%	1%	–	–	–	–	–	–	–	–	–
CC(=O)Oc1ccc(-c2ccc(/C=C/C(=O)O)cn2)cc1C12CC3CC(CC(C3)C1)C2	46%	Dose-dependent effect	Dose-dependent effect	52%	Dose-dependent effect	54%	67%	–	–	–	–	–	–	–	–	–
O=C(O)/C=C/c1ccc(-c2ccc(O)c(C34CC5CC(CC(C5)C3)C4)c2)nn1	70%	Dose-dependent effect	Dose-dependent effect	48%	Dose-dependent effect	80%	59%	inactive	Active	–	–	<=5%	>60%	<=5%	–	–
O=C(O)/C=C/c1ccc(-c2ccc(O)c(C34CC5CC(CC(C5)C3)C4)c2)cn1	48%	Dose-dependent effect	Dose-dependent effect	36%	Dose-dependent effect	58%	52%	Active	Active	–	–	10%	>60%	10%	–	–
O=C(O)c1cc2ccc(-c3ccc(O)c(C45CC6CC(CC(C6)C4)C5)c3)cc2[nH]1	1%	Dose-dependent effect	Dose-dependent effect	1%	Dose-dependent effect	8%	3%	–	–	–	–	–	–	–	–	–
O=C(O)/C=C/c1cnc(-c2ccc(O)c(C34CC5CC(CC(C5)C3)C4)c2)cn1	44%	Dose-dependent effect	Dose-dependent effect	39%	Dose-dependent effect	61%	50%	–	Active	–	–	–	–	–	316 nM	inactive
O=C(O)CNc1ccc(-c2ccc(O)c(C34CC5CC(CC(C5)C3)C4)c2)c(Cl)c1	30%	Dose-dependent effect	Dose-dependent effect	18%	Dose-dependent effect	45%	35%	inactive	–	–	–	–	–	–	–	>=40%
O=C(O)/C=C/c1cnc(-c2ccc(O)c(C34CC5CC(CC(C5)C3)C4)c2)c(Cl)c1	41%	Dose-dependent effect	Dose-dependent effect	56%	Dose-dependent effect	47%	65%	Active	Active	–	–	–	–	–	–	inactive
O=C(O)CNc1cnc(-c2ccc(O)c(C34CC5CC(CC(C5)C3)C4)c2)nc1	0%	Dose-dependent effect	Dose-dependent effect	0%	Dose-dependent effect	0%	0%	–	–	–	–	–	–	–	–	–
